This passage reports Ki results from patent publication US20030044399A1, “Method of treatment” (SmithKline Beecham Corporation, priority 1998, published 2003).

Assay [1] addresses Rhodazain (Trypanosoma brucei rhodesiense, UniProt Q95PM0). The assay can be described thus: Cysteine protease inhibition, progress curve method, rhodazain. The assay is classed as biochemical, Trypanosoma brucei rhodesiensi. The note with it: Rhodazain Ki (nM), 10 uM Cbz-Leu-Arg-AMC, 100 mM Na acetate pH 5.5, 5 mM cysteine.
The target in assay [2] is T1, Leishmania B (UniProt P90627).
T1 sequence (P90627 1-340): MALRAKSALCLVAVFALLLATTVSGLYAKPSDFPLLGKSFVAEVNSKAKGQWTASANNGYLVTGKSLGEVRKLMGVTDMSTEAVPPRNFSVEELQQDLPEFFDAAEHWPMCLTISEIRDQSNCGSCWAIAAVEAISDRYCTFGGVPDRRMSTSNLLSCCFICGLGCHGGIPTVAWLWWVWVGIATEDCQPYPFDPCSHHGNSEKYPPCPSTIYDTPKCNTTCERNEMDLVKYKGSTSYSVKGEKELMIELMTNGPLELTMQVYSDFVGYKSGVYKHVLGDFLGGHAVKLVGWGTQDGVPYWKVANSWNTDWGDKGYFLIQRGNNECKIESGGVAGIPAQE
As to the kind of experiment: Cysteine protease inhibition, progress curve method, leishmania B. The following applies: read-out: Leishmania B Ki nM; 10 uM Cbz-Phe-Arg-AMC, 100 mM Na acetate pH 5.5, 5 mM cysteine. Format: biochemical, Leishmania spp. Here is the method:
(§1) Standard assay conditions for the determination of kinetic constants used 10 uM fluorogenic peptide substrate, Cbz-Phe-Arg-AMC for the cysteine proteases from Leishmania spp and Schistosoma Mansoni, Cbz-Leu-Arg-AMC for the cysteine proteases from Plasmodium falciparum and Trypanosoma brucei rhodesiensi, and Ac-Lys-Glu-Lys-Leu-Arg-AMC (4 uM final substrate concentration) for the cysteine protease from Trypoanosoma cruzi, and were determined in 100 mM Na acetate at pH 5.5 containing 5 mM cysteine. Stock substrate solutions were prepared at concentrations of […] in DMSO with 10 uM (4 uM for Ac-Lys-Glu-Lys-Leu-Arg-AMC) final substrate concentration in the assays. The final DMSO concentration was 2% and the final volume was 100 uL. All assays were conducted at ambient temperature. Product progress curves were generated over 20 to 30 minutes following formation of AMC product.
(§2) Potential inhibitors were evaluated using the progress curve method. Assays were carried out in the presence of variable concentrations of test compound. Reactions were initiated by addition of enzyme to buffered solutions of inhibitor and substrate. Data analysis was conducted according to one of two procedures depending on the appearance of the progress curves in the presence of inhibitors. For those compounds whose progress curves were linear, apparent inhibition constants (Ki,app) were calculated according to equation 1 (Brandt et al., Biochemitsry, 1989, 28, 140):
(§3) v=VmA/[Ka(1+I/Ki,app)+A] (1)
(§4) Where v is the velocity of the reaction with maximal velocity Vm, A is the concentration of substrate with Michaelis constant of Ka, and I is the concentration of inhibitor.
(§5) [AMC]=vsst+(v0−vss)[1−exp (−kobst)]/kobs (2)
(§6) Where [AMC] is the concentration of product formed over time t, v0 is the initial reaction velocity and vss is the final steady state rate. Values for kobs were then analyzed as a linear function of inhibitor concentration to generate an apparent second order rate constant (kobs/inhibitor concentration or kobs/[I]) describing the time-dependent inhibition. A complete discussion of this kinetic treatment has been fully described (Morrison et al., Adv. Enzymol. Relat. Areas Mol. Biol., 1988, 61, 201).
(§7) Exemplary inhibition data for the compounds used in the present method collected in accordance with the above-described procedure are listed in Table I.

Assay [3] addresses Cruzain (Trypanosoma cruzi, UniProt P25779). As to the kind of experiment: Cysteine protease inhibition, progress curve method, cruzain. The assay is classed as biochemical. The note with it: 4 uM Ac-Lys-Glu-Lys-Leu-Arg-AMC, 100 mM Na acetate pH 5.5, 5 mM cysteine; read-out: Cruzain Ki. Put shortly:
(§8)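 Buffer was 100 mM sodium acetate pH 5.5 with 5 mM cysteine and 2% DMSO, at ambient temperature; reactions started with enzyme, and AMC formation was followed for 20–30 min. Substrates: Leishmania and Schistosoma, 10 uM Cbz-Phe-Arg-AMC; falcipain, 10 uM Cbz-Leu-Arg-AMC; cruzain, 4 uM Ac-Lys-Glu-Lys-Leu-Arg-AMC. Linear curves gave Ki,app; curved ones gave kobs/[I].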

The target of assay [4] is Schisto B 1 (Schistosoma mansoni, UniProt P25792). The assay can be described thus: Cysteine protease inhibition, progress curve method, schistosoma B 1. The assay is classed as biochemical. Here is the method: as §1, §2, §3, §4, §5, §6, §7
The target of assay [5] is Schisto B 2 (Schistosoma mansoni, UniProt Q95PM1). The assay can be described thus: Cysteine protease inhibition, progress curve method, schistosoma B 2. The assay is classed as biochemical. The note with it: 10 uM Cbz-Phe-Arg-AMC, 100 mM Na acetate pH 5.5, 5 mM cysteine. How it is done:
as §1, §2, §3, §4, §5, §6, §7

Assay [6] has as its target Falcipain 2 (Plasmodium falciparum, UniProt Q8I6U4). As to the kind of experiment: Cysteine protease inhibition, progress curve method, falcipain. The assay is classed as biochemical. The following applies: 10 uM Cbz-Leu-Arg-AMC, 100 mM Na acetate pH 5.5, 5 mM cysteine. The essentials:
as §8

The mark [7] stands for this setting: 10 uM Cbz-Phe-Arg-AMC, 100 mM Na acetate pH 5.5, 5 mM cysteine, read-out: Schisto B 1 Ki.

Structures are written as SMILES. pKi: −log10 of the molar value. Like-named read-outs stand apart in the source and are kept apart here.

Sequence of Schisto B 1 (P25792 89-340): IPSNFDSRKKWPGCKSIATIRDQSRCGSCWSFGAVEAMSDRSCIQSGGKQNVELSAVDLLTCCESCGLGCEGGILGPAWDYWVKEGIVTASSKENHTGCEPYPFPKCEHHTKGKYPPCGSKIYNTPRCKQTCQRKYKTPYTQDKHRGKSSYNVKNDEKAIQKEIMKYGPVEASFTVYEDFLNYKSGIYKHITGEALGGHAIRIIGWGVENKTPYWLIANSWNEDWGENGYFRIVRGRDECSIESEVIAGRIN
Sequence of Schisto B 2 (Q95PM1 entry or part of it): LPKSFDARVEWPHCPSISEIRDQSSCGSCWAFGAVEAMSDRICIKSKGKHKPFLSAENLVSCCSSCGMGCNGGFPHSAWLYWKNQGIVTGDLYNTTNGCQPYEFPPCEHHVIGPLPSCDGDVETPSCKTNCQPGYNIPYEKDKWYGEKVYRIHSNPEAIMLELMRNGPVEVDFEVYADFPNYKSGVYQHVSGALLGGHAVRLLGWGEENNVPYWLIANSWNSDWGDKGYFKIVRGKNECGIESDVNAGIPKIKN
Sequence of Cruzain (P25779 123-337): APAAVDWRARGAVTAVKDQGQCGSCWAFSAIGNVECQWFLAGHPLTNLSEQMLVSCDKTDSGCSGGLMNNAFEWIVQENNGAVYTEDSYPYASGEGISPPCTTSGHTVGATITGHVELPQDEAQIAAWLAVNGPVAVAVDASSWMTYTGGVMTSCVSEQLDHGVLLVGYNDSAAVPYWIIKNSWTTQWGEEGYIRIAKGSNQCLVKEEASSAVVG
Sequence of Rhodazain (Q95PM0 entry or part of it): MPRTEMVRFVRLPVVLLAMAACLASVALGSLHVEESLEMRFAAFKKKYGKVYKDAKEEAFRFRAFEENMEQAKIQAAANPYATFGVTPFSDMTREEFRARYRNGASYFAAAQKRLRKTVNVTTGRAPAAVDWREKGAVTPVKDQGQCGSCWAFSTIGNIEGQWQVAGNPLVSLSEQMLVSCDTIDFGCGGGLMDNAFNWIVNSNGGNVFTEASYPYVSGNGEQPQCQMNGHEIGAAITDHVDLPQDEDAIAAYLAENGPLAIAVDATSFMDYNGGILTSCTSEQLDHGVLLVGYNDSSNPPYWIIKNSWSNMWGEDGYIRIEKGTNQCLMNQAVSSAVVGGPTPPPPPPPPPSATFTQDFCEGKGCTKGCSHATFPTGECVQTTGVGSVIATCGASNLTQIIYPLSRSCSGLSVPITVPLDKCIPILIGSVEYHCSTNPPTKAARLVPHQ
Sequence of Falcipain 2 (Q8I6U4 244-484): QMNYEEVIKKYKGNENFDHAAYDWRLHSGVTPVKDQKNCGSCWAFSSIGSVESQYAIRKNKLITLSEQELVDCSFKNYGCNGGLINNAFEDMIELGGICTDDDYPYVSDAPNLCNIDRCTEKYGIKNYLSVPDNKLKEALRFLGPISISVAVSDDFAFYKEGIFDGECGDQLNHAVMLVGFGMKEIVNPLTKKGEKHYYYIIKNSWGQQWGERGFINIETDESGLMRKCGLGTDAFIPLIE

`O=C(N[C@@H](Cc1ccccc1)C(=O)NC1CCCN(S(=O)(=O)c2ccccn2)CC1=O)c1cccc2cccnc12` (single isomer, unassigned) [Example 189]: the Ki is 3.1 nM in assay [1] and 3.9 nM in assay [2].
For `O=C(NC(Cc1ccccc1)C(=O)N[C@@H]1CCCN(S(=O)(=O)c2ccccn2)CC1=O)c1cccc2ccccc12` (single isomer, unassigned) [Example 190], the pKi in assay [3] was 8.08; in assay [4] (setting [7]), 7.42; in assay [5], 7.17. In assay [1], this compound yielded an inhibition constant (Ki) of 2.5 nM.
As to `CC(C)CC(NC(=O)c1cc2ccccc2s1)C(=O)NC1CCCN(S(=O)(=O)c2ccccn2)CC1=O` (stereo in doubt) [Example 87, Benzo[b]thiophene-2-carboxylic acid {(S)-3-methyl-1-[3-oxo-1-(pyridine-2-sulfonyl)-azepan-4-ylcarbamoyl]-butyl}amide], the pKi in assay [6] was 7.38; in assay [3], 8.52; in assay [4] (setting [7]), 7.36; in assay [5], 6.59. Besides, in assay [1], the affinity, expressed as Ki, was 1.9 nM.
Turning to `CC(C)C[C@H](NC(=O)c1cnc2ccccc2n1)C(=O)N[C@H]1CCCN(S(=O)(=O)c2ccc(F)cc2)CC1=O` [Example 86], the pKi in assay [3] is 7.64; in assay [4] (setting [7]), 7.36; in assay [5], 6.59.
With `Cc1c(C(=O)N[C@@H](CC(C)C)C(=O)N[C@H]2CCCN(S(=O)(=O)c3cccc(Cl)c3)CC2=O)oc2ccccc12` [Example 90, 3-Methyl-benzofuran-2-carboxylic acid-{(S)-1-[1-(3-chloro-benzenesulfonyl)-3-oxo-azepan-4-ylcarbamoyl]-3-methyl-butyl}-amide], the Ki in assay [2] amounted to 3.3 nM. Further, the pKi is 7.32 in assay [4] (setting [7]) and 7.15 in assay [5].
`O=C(N[C@@H](Cc1ccccc1)C(=O)NC1CCCN(S(=O)(=O)c2ccccn2)CC1=O)c1cc2ccccc2o1` (stereo partly drawn) [Example 104, Benzofuran-2-carboxylic acid {(S)-1-[3-oxo-1-(pyridine-2-sulfonyl)-azepan-4-ylcarbamoyl]-2-phenyl-ethyl}-amide]: the pKi in assay [3] was 7.89; in assay [4] (setting [7]), 7.12; in assay [5], 6.57. In assay [1], the affinity, expressed as Ki, was 3.2 nM.
In the case of `COc1ccc(C(=O)N[C@@H](CC(C)C)C(=O)N[C@@H]2CCCN(S(=O)(=O)c3ccc(F)cc3)CC2=O)cc1OC` [Example 110, N—{(S)-1-[1-(4-Fluoro-benzenesulfonyl)-3-oxo-azepan-4-ylcarbamoyl}-3-methyl-butyl}-3,4-dimethoxy-benzamide], the negative logarithm of the Ki (pKi) in assay [6] was 7.02; in assay [3] it was 8.13; in assay [4] (setting [7]), 7.42; in assay [5] it was 6.55.
On to `COc1cccc(S(=O)(=O)N2CCC[C@H](NC(=O)[C@H](CC(C)C)NC(=O)c3cc4ccccc4o3)C(=O)C2)c1` [Example 136, Benzofuran-2-carboxylic acid-{(S)-1-[1-(3-methoxy-benzenesulfonyl)-3-oxo-azepan-4-ylcarbamoyl]-3-methyl-butyl}-amide], for which the pKi in assay [3] was 7.92; in assay [4] (setting [7]), 7.39; in assay [5], 6.77.
For `COc1cccc(S(=O)(=O)N2CCC[C@H](NC(=O)[C@H](CC(C)C)NC(=O)c3cc4cc(OC)ccc4o3)C(=O)C2)c1` [Example 137, 5-Methoxy-benzofuran-2-carboxylic acid-{(S)-1-[1-(3-methoxy-benzenesulfonyl)-3-oxo-azepan-4-ylcarbamoyl]-3-methyl-butyl}-amide], in that order: 7.72, 7.17 and 6.42.
Regarding `COc1ccc2oc(C(=O)N[C@@H](CC(C)C)C(=O)N[C@H]3CCCN(S(=O)(=O)c4cccs4)CC3=O)cc2c1` [Example 143, 5-Methoxy-benzofuran-2-carboxylic acid-{(S)-3-methyl-1-[3-oxo-1-(thiophene-2-sulfonyl)-azepan-4-ylcarbamoyl]-butyl}-amide], the pKi in assay [3] is 8.24; in assay [4] (setting [7]) it was 7.26; in assay [5], 6.96. For the same compound, the affinity in assay [1] corresponds to a Ki of 6.5 nM.
Regarding `O=C(N[C@@H](Cc1ccc2ccccc2c1)C(=O)NC1CCCN(S(=O)(=O)c2ccccn2)CC1=O)c1cc2ccccc2o1` (stereo partly drawn) [Example 159, Benzofuran-2-carboxylic acid {(S)-2-naphthalen-2-yl-1-[3-oxo-1-(pyridine-2-sulfonyl)-azepan-4-ylcarbamoyl)-ethyl]-amide], the Ki turned out to be 3.4 nM in assay [1] and 1.4 nM in assay [2]. The same compound gave a negative-log Ki (pKi) in assay [4] of 7.33.
Compound `COc1cc2cc(C(=O)N[C@H](CC3CCCCC3)C(=O)NC3CCCN(S(=O)(=O)c4cccc[n+]4[O-])CC3=O)oc2cc1OC` (stereo partly drawn) [Example 170, 5,6-Dimethoxy-benzofuran-2-carboxylic acid {(S)-2-cyclohexyl-1-[3-oxo-1-(1-oxy-pyridine-2-sulfonyl)-azepan-4-ylcarbamoyl]-ethyl}-amide] returned a Ki in assay [1] of 4.7 nM. Moreover, the negative-log Ki (pKi) in assay [4] (setting [7]) was 7.31; in assay [5] it was 7.09.
As for `Cc1occc1S(=O)(=O)N1CCC[C@H](NC(=O)[C@H](CC(C)C)NC(=O)c2cc3ccccc3o2)C(=O)C1` [Example 179], the figures for the pKi in assay [3], in assay [4] (setting [7]) and in assay [5] were 8.66, 7.96 and 6.96, respectively. Further, the inhibition constant Ki in assay [1] stood at 5.1 nM.
On to `O=C(NC(Cc1ccc2ccccc2c1)C(=O)NC1CCCN(S(=O)(=O)c2ccccn2)CC1=O)c1cccc2cccnc12` [Example 187, Quinoline-8-carboxylic acid {(S)-2-naphthalen-2-yl-1-[3-oxo-1-(pyridine-2-sulfonyl)-azepan-4-ylcarbamoyl]-ethyl}-amide], for which the negative-log Ki (pKi) in assay [3] was 8.17; in assay [4] (setting [7]), 8.08. Further, the Ki was 2.5 nM in assay [1] and 2.1 nM in assay [2].
`CC(C)C[C@H](NC(=O)c1cc2ccccc2o1)C(=O)NC1CCCN(Cc2ccc3ccccc3n2)CC1=O` (stereo partly drawn) [Example 212, Benzofuran-2-carboxylic acid [(S)-3-methyl-1-[3-oxo-1-quinolin-2-ylmethyl-azepan-4-ylcarbamoyl]-butyl}-amide]: the pKi in assay [3] was 8.11. Further, the Ki in assay [2] came out at 1.7 nM.
For `Cc1c(C(=O)N[C@@H](CC(C)C)C(=O)NC2CCCN(Cc3ccc4ccccc4n3)CC2=O)oc2ccccc12` (stereo partly drawn) [Example 213, 3-Methyl-benzofuran-2-carboxylic acid [(S)-3-methyl-1-[3-oxo-1-quinolin-2-ylmethyl-azepan-4-ylcarbamoyl]-butyl}-amide], in that order: 8.15 and 0.77 nM.
Consider `CC(C)C[C@H](NC(=O)c1cc2ccccc2s1)C(=O)NC1CCCN(Cc2ccc3ccccc3n2)CC1=O` (stereo partly drawn) [Example 214, Benzo[b]thiophene-2-carboxylic acid {(S)-3-methyl-1-[3-oxo-1-quinolin-2-ylmethyl-azepan-4-ylcarbamoyl]-butyl}-amide], for which, in assay [3], the pKi was 8.13. Besides, the Ki in assay [2] came to 1 nM.
